Laboratory results reported in patent publication US20140011757A1, “NOVEL MACROLIDE DERIVATIVE” (MEIJI SEIKA PHARMA CO., LTD., priority 2011, published 2014).
Converted amounts (≈) assume the structure as drawn. “And” between values parts separate entries of the source, which are not always exact repeats. Equal entries are not always repeated. Where two headings read alike, the source gives them in different places.

Experiments:
M. haemolytica = experiment: In vitro antibacterial activity, broth microdilution MIC (CLSI M31-A2); type: cell-based, Mannheimia haemolytica
Procedure: (§1) Hereinafter, a description is made of an evaluation method for the compound. The compound was measured for its in vitro antibacterial activity by a broth microdilution method in accordance with a CLSI method (formerly NCCLS method, […]-A2) (Performance Standards for Antimicrobial Disk and Dilution Susceptibility Tests for Bacteria Isolated from Animals; Approved Standard-Second Edition NCCLS […]-A2 Vol. 22 No. 6 2002). A medium used was BBL Mueller Hinton II broth supplemented with lysed horse blood and NAD. A test drug solution at each concentration level obtained by dissolving a test drug in ethanol and then diluting the resultant with the liquid medium described above was dispensed into a 96-well microplate, and a test bacterial strain was inoculated. After having been cultured in the presence of 5% CO2 at 37° C. for 20 to 24 hours, the test bacterial strain was visually observed for the presence or absence of its growth. A minimum drug concentration completely inhibiting the growth of the test bacterial strain was defined as a minimum inhibitory concentration (hereinafter, referred to as MIC). The compound obtained in the present invention was measured for its in vitro antibacterial activity by a broth microdilution method in accordance with a CLSI method (formerly NCCLS method, […]-A2) (Performance Standards for Antimicrobial Disk and Dilution Susceptibility Tests for Bacteria Isolated from Animals; Approved Standard-Second Edition NCCLS […]-A2 Vol. 22 No. 6 2002). A medium composition used in the measurement is shown below. […] The resultant test drug solution was further subjected to two-step dilution with the liquid medium described above to prepare a test drug solution at each concentration level. The thus prepared test drug solution at each concentration level was dispensed into a 96-well microplate at 100 μL/well, and a test bacterial strain was inoculated at about 5×10^4 CFU/well. After having been cultured in the presence of 5% CO2 at 37° C. for 20 to 24 hours, the test bacterial strain was visually observed for the presence or absence of its growth. A minimum drug concentration completely inhibiting the growth of the test bacterial strain was defined as a minimum inhibitory concentration (hereinafter, referred to as MIC). […] Saponin was dissolved with purified water. The solution was sterilized and then added to defibrinated horse blood.

P. multocida = experiment: as above; type: cell-based, Pasteurella multocida
Procedure: as §1

H. parasuis = experiment: as above; type: cell-based, Haemophilus parasuis
Procedure: as §1

H. somni = experiment: as above; type: cell-based, Histophilus somni
Procedure: as §1

A. pleuropneumoniae = experiment: as above; type: cell-based, Actinobacillus pleuropneumoniae
Procedure: as §1

[1] = system: main pathogens of bacterial respiratory tract infections in livestock animals such as cattle and swine; type: cell-based
[2] = Mannheimia haemolytica, M. haemolytica strain 11443, read-out: MIC
[3] = Mannheimia haemolytica, M. haemolytica strain 11467-2, read-out: MIC
[4] = Pasteurella multocida, ATCC43019, P. multocida (bovine) strain ATCC43019, read-out: MIC
[5] = Pasteurella multocida, ATCC43137, P. multocida (swine) strain ATCC43137, read-out: MIC
[6] = Pasteurella multocida, P. multocida (bovine) strain 11272, read-out: MIC
[7] = Pasteurella multocida, P. multocida (bovine) strain 11325-1, read-out: MIC
[8] = Pasteurella multocida, P. multocida (bovine) strain 11787-24, read-out: MIC
[9] = Pasteurella multocida, P. multocida (swine) strain 11587-3, read-out: MIC
[10] = Pasteurella multocida, P. multocida (swine) strain 11745-15, read-out: MIC
[11] = Glaesserella parasuis, H. parasuis strain 11510-1, read-out: MIC
[12] = Glaesserella parasuis, H. parasuis strain 11640-1, read-out: MIC
[13] = Histophilus somni, H. somni strain 11321, read-out: MIC
[14] = Histophilus somni, H. somni strain 11423-3, read-out: MIC
[15] = Actinobacillus pleuropneumoniae, A. pleuropneumoniae strain 10895-2, read-out: MIC
[16] = Actinobacillus pleuropneumoniae, A. pleuropneumoniae strain 11684-7, read-out: MIC
[17] = Actinobacillus pleuropneumoniae, A. pleuropneumoniae strain 11796-1, read-out: MIC
[18] = Actinobacillus pleuropneumoniae, A. pleuropneumoniae strain 11804-2, read-out: MIC
[19] = Actinobacillus pleuropneumoniae, ATCC27089, A. pleuropneumoniae strain ATCC27089, read-out: MIC

| Molecule | MIC (M. haemolytica; [2]) | MIC (M. haemolytica; [3]) | MIC (P. multocida; [4]) | MIC (P. multocida; [5]) | MIC (P. multocida; [6]) | MIC (P. multocida; [7]) | MIC (P. multocida; [8]) | MIC (P. multocida; [9]) | MIC (P. multocida; [10]) | MIC (H. parasuis; [11]) | MIC (H. parasuis; [12]) | MIC (H. somni; [13]) | MIC (H. somni; [14]) | MIC (A. pleuropneumoniae; [15]) | MIC (A. pleuropneumoniae; [16]) | MIC (A. pleuropneumoniae; [17]) | MIC (A. pleuropneumoniae; [18]) | MIC (A. pleuropneumoniae; [19]) | also measured |
| --- | --- | --- | --- | --- | --- | --- | --- | --- | --- | --- | --- | --- | --- | --- | --- | --- | --- | --- | --- |
| CCCNC[C@]1(O)[C@H](C)O[C@@H](O[C@H]2[C@H](C)[C@@H](O[C@@H]3O[C@H](C)C[C@H](N(C)C)[C@H]3O)[C@](C)(O)C[C@@H](C)CN[C@H](C)[C@@H](O)[C@](C)(O)[C@@H](CC)OC(=O)[C@@H]2C)C[C@@]1(C)OC [TLM, tulathromycin] | – | – | – | – | – | – | – | – | – | – | – | – | – | – | – | – | – | – | MIC (M. haemolytica; M. haemolytica strain 11443): 16 µg/mL (≈ 19.8 µM); MIC (M. haemolytica; M. haemolytica strain 11467-2): 32 µg/mL (≈ 39.7 µM); MIC (P. multocida; P. multocida (bovine) strain 11272): 16 µg/mL (≈ 19.8 µM); MIC (P. multocida; P. multocida (bovine) strain 11325-1): 4 µg/mL (≈ 4.96 µM); MIC (P. multocida; P. multocida (bovine) strain 11787-24): 8 µg/mL (≈ 9.92 µM); MIC (P. multocida; P. multocida (bovine) strain ATCC43019): 16 µg/mL (≈ 19.8 µM); MIC (P. multocida; P. multocida (swine) strain 11587-3): 16 µg/mL (≈ 19.8 µM); MIC (P. multocida; P. multocida (swine) strain 11745-15): 8 µg/mL (≈ 9.92 µM); MIC (P. multocida; P. multocida (swine) strain ATCC43137): 16 µg/mL (≈ 19.8 µM); MIC (H. parasuis; H. parasuis strain 11510-1): 4 µg/mL (≈ 4.96 µM); MIC (H. parasuis; H. parasuis strain 11640-1): 8 µg/mL (≈ 9.92 µM); MIC (H. somni; H. somni strain 11321): 1 µg/mL (≈ 1.24 µM); MIC (H. somni; H. somni strain 11423-3): 1 µg/mL (≈ 1.24 µM); MIC (A. pleuropneumoniae; A. pleuropneumoniae strain 10895-2): 16 µg/mL (≈ 19.8 µM); MIC (A. pleuropneumoniae; A. pleuropneumoniae strain 11684-7): 64 µg/mL (≈ 79.4 µM); MIC (A. pleuropneumoniae; A. pleuropneumoniae strain 11796-1): 16 µg/mL (≈ 19.8 µM); MIC (A. pleuropneumoniae; A. pleuropneumoniae strain 11804-2): 16 µg/mL (≈ 19.8 µM); MIC (A. pleuropneumoniae; A. pleuropneumoniae strain ATCC27089): 32 µg/mL (≈ 39.7 µM) |
| CC[C@H]1OC(=O)C[C@@H](O)[C@H](C)[C@@H](O[C@@H]2O[C@H](C)[C@@H](O)[C@H](N(C)C)[C@H]2O)[C@@H](CCN2C[C@H](C)C[C@H](C)C2)C[C@@H](C)C(=O)/C=C/C(C)=C/[C@@H]1CO[C@@H]1O[C@H](C)[C@@H](O)[C@@H](OC)[C@H]1OC [TMS, tilmicosin] | 16 µg/mL (≈ 18.4 µM) | 8 µg/mL (≈ 9.2 µM) | 32 µg/mL (≈ 36.8 µM) | 16 µg/mL (≈ 18.4 µM) | 32 µg/mL (≈ 36.8 µM) | 16 µg/mL (≈ 18.4 µM) | 16 µg/mL (≈ 18.4 µM) | 16 µg/mL (≈ 18.4 µM) | 16 µg/mL (≈ 18.4 µM) | 1 µg/mL (≈ 1.15 µM) | 16 µg/mL (≈ 18.4 µM) | 1 µg/mL (≈ 1.15 µM) | 4 µg/mL (≈ 4.6 µM) | 16 µg/mL (≈ 18.4 µM) | 128 µg/mL (≈ 147 µM) | 16 µg/mL (≈ 18.4 µM) | 16 µg/mL (≈ 18.4 µM) | 16 µg/mL (≈ 18.4 µM) | – |
| CC[C@H]1OC(=O)C[C@@H](O)[C@H](C)[C@@H](O[C@@H]2O[C@H](C)[C@@H](O[C@H]3C[C@@](C)(O)[C@@H](O)[C@H](C)O3)[C@H](N(C)C)[C@H]2O)[C@@H](CC=O)C[C@@H](C)C(=O)/C=C/C(C)=C/[C@@H]1CO[C@@H]1O[C@H](C)[C@@H](O)[C@@H](OC)[C@H]1OC [TS, tylosin] | 16 µg/mL (≈ 17.5 µM) | 128 µg/mL (≈ 140 µM) | 64 µg/mL (≈ 69.9 µM) | 64 µg/mL (≈ 69.9 µM) | 64 µg/mL (≈ 69.9 µM) | 16 µg/mL (≈ 17.5 µM) | 32 µg/mL (≈ 34.9 µM) | 64 µg/mL (≈ 69.9 µM) | 64 µg/mL (≈ 69.9 µM) | 4 µg/mL (≈ 4.37 µM) | 8 µg/mL (≈ 8.73 µM) | 1 µg/mL (≈ 1.09 µM) | 4 µg/mL (≈ 4.37 µM) | 16 µg/mL (≈ 17.5 µM) | 256 µg/mL (≈ 279 µM) | 32 µg/mL (≈ 34.9 µM) | 32 µg/mL (≈ 34.9 µM) | 32 µg/mL (≈ 34.9 µM) | – |
| aivlosin | – | – | – | – | – | – | – | – | – | – | – | – | – | – | – | – | – | – | MIC (M. haemolytica): 32 µg/mL and 64 µg/mL; MIC (P. multocida): 256 µg/mL and 128 µg/mL; MIC (H. parasuis): 16 µg/mL and 32 µg/mL; MIC (A. pleuropneumoniae): 32 µg/mL and 64 µg/mL |
| CO[C@@H]1C(OC2O[C@@H](C)C(O)C(N(C)C)C2O)[C@@H](CC=O)C[C@@H](C)[C@@H](OC(C)=O)/C=C/[C@@H](N(C)CCCc2ccnc3ccccc23)[C@@H](O)C[C@@H](C)OC(=O)C[C@H]1OC(C)=O (stereo partly shown) [Compound of formula (I)] | 4 µg/mL | 4 µg/mL | 4 µg/mL | 4 µg/mL | 4 µg/mL | 2 µg/mL | 4 µg/mL | 4 µg/mL | 4 µg/mL | 0.5 µg/mL | 4 µg/mL | 0.5 µg/mL | 1 µg/mL | 4 µg/mL | 32 µg/mL | 4 µg/mL | 8 µg/mL | 4 µg/mL | MIC corresponding to an activity enhanced as compared to josamycin [1]: approximately 8 fold; MIC corresponding to an activity enhanced as compared to tulathromycin [1]: ≥ 4 fold; antibacterial activities as compared to the existing drugs [1]: remarkably strong antibacterial activities |
| CO[C@@H]1[C@@H](O[C@@H]2O[C@H](C)[C@@H](O[C@H]3C[C@@](C)(O)[C@@H](OC(=O)CC(C)C)[C@H](C)O3)[C@H](N(C)C)[C@H]2O)[C@@H](CC=O)C[C@@H](C)[C@@H](O)/C=C/C=C/C[C@@H](C)OC(=O)C[C@H]1OC(C)=O [JM, josamycin] | 16 µg/mL (≈ 19.3 µM) | 32 µg/mL (≈ 38.6 µM) | 64 µg/mL (≈ 77.3 µM) | 32 µg/mL (≈ 38.6 µM) | 16 µg/mL (≈ 19.3 µM) | 8 µg/mL (≈ 9.66 µM) | 32 µg/mL (≈ 38.6 µM) | 32 µg/mL (≈ 38.6 µM) | 32 µg/mL (≈ 38.6 µM) | 8 µg/mL (≈ 9.66 µM) | 32 µg/mL (≈ 38.6 µM) | 2 µg/mL (≈ 2.42 µM) | 8 µg/mL (≈ 9.66 µM) | 32 µg/mL (≈ 38.6 µM) | 64 µg/mL (≈ 77.3 µM) | 16 µg/mL (≈ 19.3 µM) | 8 µg/mL (≈ 9.66 µM) | 16 µg/mL (≈ 19.3 µM) | – |
